Values joined by “and” are separate entries in the source; they are usually repeats but may differ in a detail not shown here. Equal entries are not always repeated.
Experiments:
VIP peptides [1] = target: T1, VIP peptides (Homo sapiens, UniProt P01282)
T1 sequence (P01282 whole entry): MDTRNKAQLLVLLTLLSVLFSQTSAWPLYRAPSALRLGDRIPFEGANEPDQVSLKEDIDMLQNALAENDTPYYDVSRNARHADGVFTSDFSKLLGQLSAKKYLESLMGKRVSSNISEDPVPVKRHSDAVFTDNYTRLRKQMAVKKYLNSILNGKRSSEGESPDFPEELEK

VIP peptides [2] = target: T2, VIP peptides (Cavia porcellus, UniProt P04566)
T2 sequence (P04566 whole entry): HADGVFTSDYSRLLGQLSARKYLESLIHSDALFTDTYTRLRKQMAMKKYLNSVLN

VIP peptides [3] = target: T3, VIP peptides (Rattus norvegicus, UniProt P01283)
T3 sequence (P01283 whole entry): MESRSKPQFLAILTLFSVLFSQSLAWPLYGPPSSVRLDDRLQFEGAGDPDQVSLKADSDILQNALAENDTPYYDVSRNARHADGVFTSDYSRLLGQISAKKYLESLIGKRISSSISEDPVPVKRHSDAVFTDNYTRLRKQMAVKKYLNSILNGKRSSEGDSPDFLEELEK

Molecule | Ki (VIP peptides [1]) | Ki (VIP peptides [2]) [nM] | Ki (VIP peptides [3])
CC[C@H](C)[C@H](NC(=O)[C@H](CO)NC(=O)[C@H](CC(N)=O)NC(=O)[C@H](CC(C)C)NC(=O)[C@H](Cc1ccc(O)cc1)NC(=O)[C@H](CCCCN)NC(=O)[C@H](CCCCN)NC(=O)[C@@H](NC(=O)[C@H](C)NC(=O)[C@H](CCSC)NC(=O)[C@H](CCC(N)=O)NC(=O)[C@H](CCCCN)NC(=O)[C@@H](CCCN=C(N)N)NC(=O)[C@H](CC(C)C)NC(=O)[C@H](CCCN=C(N)N)NC(=O)[C@@H](NC(=O)[C@H](Cc1ccc(O)cc1)NC(=O)[C@H](CC(N)=O)NC(=O)[C@H](CC(=O)O)NC(=O)[C@@H](NC(=O)[C@H](Cc1ccccc1)NC(=O)[C@@H](NC(=O)[C@H](C)NC(=O)[C@H](CC(=O)O)NC(=O)[C@H](CO)NC(=O)[C@@H](N)Cc1cnc[nH]1)C(C)C)[C@@H](C)O)[C@@H](C)O)C(C)C)C(=O)N[C@@H](CC(C)C)C(=O)N[C@@H](CC(N)=O)C(N)=O [VIP [D-Arg14]] | 10.7 nM and 31.6 nM and 24.6 nM | 36.4 | 10.5 nM and 22.4 nM and 27.5 nM
CC[C@H](C)[C@H](NC(=O)[C@H](CO)NC(=O)[C@H](CC(N)=O)NC(=O)[C@H](CC(C)C)NC(=O)[C@H](Cc1ccc(O)cc1)NC(=O)[C@H](CCCCN)NC(=O)[C@H](CCCCN)NC(=O)[C@H](NC(=O)[C@H](C)NC(=O)[C@H](CCSC)NC(=O)[C@H](CCC(N)=O)NC(=O)[C@H](CCCCN)NC(=O)[C@H](CCCN=C(N)N)NC(=O)[C@H](CC(C)C)NC(=O)[C@H](CCCN=C(N)N)NC(=O)[C@@H](NC(=O)[C@H](Cc1ccc(O)cc1)NC(=O)[C@H](CC(N)=O)NC(=O)[C@H](CC(=O)O)NC(=O)[C@@H](NC(=O)[C@H](Cc1ccccc1)NC(=O)[C@@H](NC(=O)[C@H](C)NC(=O)[C@H](CC(=O)O)NC(=O)[C@H](CO)NC(=O)[C@@H](N)Cc1cnc[nH]1)C(C)C)[C@@H](C)O)[C@@H](C)O)C(C)C)C(=O)N[C@@H](CC(C)C)C(=O)N[C@@H](CC(N)=O)C(N)=O [VIP [D-Val19]] | 10.9 nM and 69.2 nM and 58.9 nM | 34.6 | 6.3 nM and 29.5 nM and 25.1 nM
H-HSDAVATDNYTRLRKQMAVKKYLNSILN-NH2 [VIP Ala16] | 724 nM and 1150 nM and 794 nM | 2750 | 661 nM and 1860 nM and 2340 nM
CC[C@H](C)[C@H](NC(=O)[C@H](CO)NC(=O)[C@H](CC(N)=O)NC(=O)[C@H](CC(C)C)NC(=O)[C@H](Cc1ccc(O)cc1)NC(=O)[C@H](CCCCN)NC(=O)[C@H](CCCCN)NC(=O)[C@@H](NC(=O)[C@H](C)NC(=O)[C@H](CCSC)NC(=O)[C@H](CCC(N)=O)NC(=O)[C@H](CCCCN)NC(=O)[C@H](CCCN=C(N)N)NC(=O)[C@H](CC(C)C)NC(=O)[C@H](CCCN=C(N)N)NC(=O)[C@@H](NC(=O)[C@H](Cc1ccc(O)cc1)NC(=O)[C@H](CC(N)=O)NC(=O)[C@H](CC(=O)O)NC(=O)[C@H](NC(=O)[C@H](Cc1ccccc1)NC(=O)[C@@H](NC(=O)[C@H](C)NC(=O)[C@H](CC(=O)O)NC(=O)[C@H](CO)NC(=O)[C@@H](N)Cc1cnc[nH]1)C(C)C)[C@H](C)O)[C@@H](C)O)C(C)C)C(=O)N[C@@H](CC(C)C)C(=O)N[C@@H](CC(N)=O)C(N)=O [VIP [D-Thr7]] | 162 nM and 288 nM and 214 nM | 200 | 87.1 nM and 324 nM and 437 nM
H-HSDAVFTDNYTALRKQMAVKKYLNSILN-NH2 [VIP Ala12] | 53.7 nM and 61.7 nM and 50.1 nM | 56.1 | 12.3 nM and 34.7 nM and 30 nM
H-HSAAVFTDNYTRLRKQMAVKKYLNSILN-NH2 [VIP Ala3] | 74.1 nM and 182 nM and 123 nM | 427 | 43.7 nM and 245 nM and 148 nM
H-HSDAVFTDNYTRLRKQMAAKKYLNSILN-NH2 [VIP Ala19] | 0.59 nM and 4.1 nM and 2.1 nM | 3.2 | 0.85 nM and 2.8 nM and 2.2 nM
H-HSDAVFTDNYTRLRKQMAVKKYANSILN-NH2 [VIP Ala23] | 26.9 nM and 170 nM and 155 nM | 182 | 33.9 nM and 213 nM and 204 nM
CC[C@H](C)[C@H](NC(=O)[C@H](CO)NC(=O)[C@H](CC(N)=O)NC(=O)[C@H](CC(C)C)NC(=O)[C@H](Cc1ccc(O)cc1)NC(=O)[C@H](CCCCN)NC(=O)[C@H](CCCCN)NC(=O)[C@@H](NC(=O)[C@H](C)NC(=O)[C@H](CCSC)NC(=O)[C@H](CCC(N)=O)NC(=O)[C@H](CCCCN)NC(=O)[C@H](CCCN=C(N)N)NC(=O)[C@H](CC(C)C)NC(=O)[C@@H](CCCN=C(N)N)NC(=O)[C@@H](NC(=O)[C@H](Cc1ccc(O)cc1)NC(=O)[C@H](CC(N)=O)NC(=O)[C@H](CC(=O)O)NC(=O)[C@@H](NC(=O)[C@H](Cc1ccccc1)NC(=O)[C@@H](NC(=O)[C@H](C)NC(=O)[C@H](CC(=O)O)NC(=O)[C@H](CO)NC(=O)[C@@H](N)Cc1cnc[nH]1)C(C)C)[C@@H](C)O)[C@@H](C)O)C(C)C)C(=O)N[C@@H](CC(C)C)C(=O)N[C@@H](CC(N)=O)C(N)=O [VIP [D-Arg12]] | 2.2 nM and 18.2 nM and 14.4 nM | 16.9 | 2.8 nM and 11.7 nM and 19.1 nM
CC[C@H](C)[C@H](NC(=O)[C@H](CO)NC(=O)[C@H](CC(N)=O)NC(=O)[C@H](CC(C)C)NC(=O)[C@@H](Cc1ccc(O)cc1)NC(=O)[C@H](CCCCN)NC(=O)[C@H](CCCCN)NC(=O)[C@@H](NC(=O)[C@H](C)NC(=O)[C@H](CCSC)NC(=O)[C@H](CCC(N)=O)NC(=O)[C@H](CCCCN)NC(=O)[C@H](CCCN=C(N)N)NC(=O)[C@H](CC(C)C)NC(=O)[C@H](CCCN=C(N)N)NC(=O)[C@@H](NC(=O)[C@H](Cc1ccc(O)cc1)NC(=O)[C@H](CC(N)=O)NC(=O)[C@H](CC(=O)O)NC(=O)[C@@H](NC(=O)[C@H](Cc1ccccc1)NC(=O)[C@@H](NC(=O)[C@H](C)NC(=O)[C@H](CC(=O)O)NC(=O)[C@H](CO)NC(=O)[C@@H](N)Cc1cnc[nH]1)C(C)C)[C@@H](C)O)[C@@H](C)O)C(C)C)C(=O)N[C@@H](CC(C)C)C(=O)N[C@@H](CC(N)=O)C(N)=O [VIP [D-Tyr22]] | 128 nM and 95.5 nM and 112 nM | 29.5 | 11.8 nM and 28.2 nM and 38.9 nM
H-HSDAVFTDNYTRLRKQMAVKKYLNSIAN-NH2 [VIP Ala27] | 0.37 nM and 2.3 nM and 2.5 nM | 2.4 | 0.59 nM and 4.7 nM and 2 nM
H-HSDAVFTDNYTRLRKQMAVKAYLNSILN-NH2 [VIP Ala21] | 0.87 nM and 5 nM and 5.1 nM | 3.2 | 0.38 nM and 2.1 nM and 0.51 nM
H-HSDAVFTDNYTRLAKQMAVKKYLNSILN-NH2 [VIP Ala14] | 24.6 nM and 174 nM and 111 nM | 61.6 | 30 nM and 45.7 nM and 51.3 nM

From BindingDB's records for doi:10.1124/jpet.301.1.37 (National Institutes of Health, 2002)
